Laboratory results from patent EP0579169B1, “Alkylenediamine derivatives” (NIPPON CHEMIPHAR CO., LTD., priority 1992, dated 1994).

Tests used:
mouse = test: Toxicity, LD50 by the up-and-down method; format: in vivo; conditions: i.v.
Excerpt: (§1) With respect to toxicity of the compounds of the invention, each LD50 (mg/kg) measured by the up-and-down method is also set forth in Table 1.

[1] = test system: rhythmic bladder contraction; test: Test for inhibition of urinating contraction of bladder (rhythmic bladder contraction, anesthetized rat, saline infusion into the closed bladder); format: in vivo; conditions: i.v., urethane-anesthetized male Wistar rat, control (physiological saline) 1.6 min.
Procedure: (I) Test for Inhibition of Urinating Contraction of Bladder
With respect to inhibition of the urinating contraction of bladder, performance of the compound of the present invention was evaluated by the following method.
A male Wistar rat was anesthetized with urethane (1.5 g/kg, s.c.) and fixed on its back on a board. Into the trachea of the rat, a tracheotomy tube was inserted in order to insure an airway, and then midline incisura was carried out to denude the bladder. Subsequently, a small opening was produced on the top of the bladder and the urine was exhausted, and then a polyethylene cannula (diameter: approx. 1 mm) was inserted into the bladder. The urethra and the ureter were tied up to make the bladder a closed system.
By means of an infusion pump, phsiological saline was poured into the bladder of rat at a rate of 0.05 ml/min. induce the rhythmic bladder contraction. Subsequently, intravesical pressure was measured by a pressure transducer and recorded on a pen-writing recorder. The test compound was dissolved in physiological saline and then administered into the femoral vein through a polyethylene cannula.
Performance for inhibiting the urinary bladder contraction was evaluated by measuring the period (inhibiting period) in which the rhythmic bladder contraction was inhibited. As the medicament, each of the compounds obtained in Examples was used.

[2] = Toxicity, LD50 by the up-and-down method; format: in vivo; conditions: mouse, in vivo, iv
Excerpt: as §1

Urinary bladder strips = test: Effect on isolated urinary bladder smooth muscle (contraction elicited by acetylcholine or norepinephrine); parameters: species or system male Japanese white rabbits; conditions: rabbit urinary bladder strips, Krebs solution 37°C; pretreatment five minutes before, concentration 1x10^-5 to 3x10^-5 (unit not given)
Procedure: (II) Effect on Isolated Urinary Bladder Smooth Muscle
Urinary bladder strips were obtained from male Japanese white rabbits (weight: 2.00-2.80 kg). Each strip was suspended in an organ bath containing Krebs solution. The organ bath was maintained at 37°C and constantly gassed with carbogen. Cumulative concentration-response curves of acetylcholine and norepinephrine were obtained.
The compound to be tested (compound of Example 2 (i.e., 5-benzyl-3-(3-morpholino-1-phenylpropyl)-1,3-oxazolidin-2-one fumarate) was introduced into the Krebs solution five minutes prior to the introduction of acetylcholine or norepinephrine to elicit the contractive action.
Therefore, it has been confirmed that the tested compound depresses the bladder contraction not by acting on the peripheral nerves system but on the central nurves system.

O=C(O)/C=C/C(=O)O.O=C1OC(Cc2ccccc2)CN1C(CCN1CCOCC1)c1ccccc1 (single isomer, unassigned; (-)) [Example 3, (-)-5-Benzyl-3-(3-morpholino-1-phenylpropyl)-1,3-oxazolidin-2-one fumarate]
LD50/mouse (mouse; fumarate): 49 mg/kg | Period (inhibiting period in which the rhythmic bladder contraction was inhibited) ([1]; dose 8 mg/kg, fumarate): 6.0 min

O=C(O)/C=C/C(=O)O.O=C1OC(Cc2ccccc2Br)CN1C(CCN1CCOCC1)c1ccccc1 (single isomer, unassigned) [Example 13, 5-(2-Bromophenyl)methyl-3-(3-morpholino-1-phenylpropyl)-1,3-oxazolidin-2-one fumarate]
LD50 [2]: 48 mg/kg | Period (inhibiting period in which the rhythmic bladder contraction was inhibited) ([1]; dose 5 mg/kg): 6.5 min

CS(=O)(=O)O.O=C1OC(Cc2cccc3ccccc23)CN1C(CCN1CCOCC1)c1ccccc1 (single isomer, unassigned) [Example 46, 5-(1-Naphthyl)methyl-3-(3-morpholino-1-phenylpropyl)-1,3-oxazolidin-2-one mesylate]
LD50 [2]: > 20 mg/kg | Period (inhibiting period in which the rhythmic bladder contraction was inhibited) ([1]; dose 5 mg/kg): 6.0 min

O=C(O)/C=C/C(=O)O.O=C1OC(CCc2ccccc2Br)CN1C(CCN1CCOCC1)c1ccccc1 (single isomer, unassigned) [Example 25, 5-[2-(2-bromophenyl)ethyl]-3-(3-morpholino-1-phenylpropyl)-1,3-oxazolidin-2-one fumarate]
LD50 [2]: 79 mg/kg | Period (inhibiting period in which the rhythmic bladder contraction was inhibited) ([1]; dose 8 mg/kg): 7.5 min

O=C(O)/C=C/C(=O)O.O=C1OC(Cc2cccs2)CN1C(CCN1CCOCC1)c1ccccc1 (single isomer, unassigned) [Example 56, 3-(3-Morpholino-1-phenylpropyl)-5-(2-thenyl)-1,3-oxazolidin-2-one fumarate]
LD50/mouse (mouse; fumarate): 111 mg/kg | Period (inhibiting period in which the rhythmic bladder contraction was inhibited) ([1]; dose 11 mg/kg): 4.7 min

O=C(O)/C=C/C(=O)O.O=C1OC(Cc2cccs2)CN1C(CCN1CCOCC1)c1ccccc1 (single isomer, unassigned) [Example 55, 3-(3-Morpholino-1-phenylpropyl)-5-(2-thenyl)-1,3-oxazolidin-2-one fumarate]
LD50 [2]: 84 mg/kg | Period (inhibiting period in which the rhythmic bladder contraction was inhibited) ([1]; dose 8 mg/kg): 4.6 min

O=C(O)/C=C/C(=O)O.O=C1OC(Cc2ccccc2)CN1C(CCN1CCOCC1)c1ccccc1 (single isomer, unassigned) [Example 2, 5-Benzyl-3-(3-morpholino-1-phenylpropyl)-1,3-oxazolidin-2-one fumarate]
action on the contraction caused by acetylcholine (Urinary bladder strips): did not give any effective action | action on the contraction caused by norepinepherine (Urinary bladder strips): did not give any effective action | LD50 [2]: 76 mg/kg | Period (inhibiting period in which the rhythmic bladder contraction was inhibited) ([1]; dose 8 mg/kg, fumarate): 5.4 min

O=C(O)/C=C/C(=O)O.O=C1OC(CCc2ccccc2)CN1C(CCN1CCOCC1)c1ccccc1 (single isomer, unassigned) [Example 50, 3-(3-Morpholino-1-phenylpropyl)-5-(2-phenylethyl)-1,3-oxazolidin-2-one fumarate]
LD50 [2]: 45 mg/kg | Period (inhibiting period in which the rhythmic bladder contraction was inhibited) ([1]; dose 5 mg/kg): 7.5 min

O=C(O)/C=C/C(=O)O.O=C1OCC(Cc2ccccc2)N1C(CCN1CCOCC1)c1ccccc1 (single isomer, unassigned) [Example 69, 4-Benzyl-3-(3-morpholino-1-phenylpropyl)-1,3-oxazolidin-2-one fumarate]
LD50 [2]: 76 mg/kg | Period (inhibiting period in which the rhythmic bladder contraction was inhibited) ([1]; dose 8 mg/kg): 6.6 min

O=C1OC(Cc2ccccc2)CN1C(CCN1CCOCC1)c1cccs1 (single isomer, unassigned) [Example 61, 5-Benzyl-3-[3-morpholino-1-(2-thienyl)propyl]-1,3-oxazolidin-2-one]
LD50 [2]: 59 mg/kg | Period (inhibiting period in which the rhythmic bladder contraction was inhibited) ([1]; dose 6 mg/kg): 6.5 min

O=C(O)/C=C/C(=O)O.O=C1COC(Cc2ccccc2Br)CN1C(CCN1CCOCC1)c1ccccc1 (single isomer, unassigned) [Example 70, 2-(2-Bromobenzyl)-4-(3-morpholino-1-phenylpropyl)-5-morpholinone fumarate]
LD50 [2]: > 60 mg/kg | Period (inhibiting period in which the rhythmic bladder contraction was inhibited) ([1]; dose 6 mg/kg): 1.5 min

CC(C)CC1COC(=O)N1C(CCN1CCOCC1)c1ccccc1.O=C(O)/C=C/C(=O)O (single isomer, unassigned) [Example 67, 4-Isobutyl-3-(3-morpholino-1-phenylpropyl)-1,3-oxazolidin-2-one fumarate]
LD50 [2]: 137 mg/kg | Period (inhibiting period in which the rhythmic bladder contraction was inhibited) ([1]; dose 14 mg/kg): 3.5 min

O=C(O)/C=C/C(=O)O.O=C1OC(Cc2ccccc2)CN1C(CCN1CCOCC1)c1ccccc1 (single isomer, unassigned; (+)) [Example 4, (+)-5-Benzyl-3-(3-morpholino-1-phenylpropyl)-1,3-oxazolidin-2-one fumarate]
LD50/mouse (mouse; fumarate): 77 mg/kg | Period (inhibiting period in which the rhythmic bladder contraction was inhibited) ([1]; dose 8 mg/kg, fumarate): 3.8 min

O=C1OC(Cc2ccccc2)CN1C(CCN1CCOCC1)c1cccs1 (single isomer, unassigned) [Example 62, 5-Benzyl-3-[3-morpholino-1-(2-thienyl)propyl]-1,3-oxazolidin-2-one]
LD50/mouse (mouse): 63 mg/kg | Period (inhibiting period in which the rhythmic bladder contraction was inhibited) ([1]; dose 6 mg/kg): 7.2 min

O=C(O)/C=C/C(=O)O.O=C1OC(CCc2ccccc2Cl)CN1C(CCN1CCOCC1)c1ccccc1 (single isomer, unassigned) [Example 27, 5-[2-(2-Chlorophenyl)ethyl]-3-(3-morpholino-1-phenylpropyl)-1,3-oxazolidin-2-one fumarate]
LD50 [2]: 75 mg/kg | Period (inhibiting period in which the rhythmic bladder contraction was inhibited) ([1]; dose 8 mg/kg): 8.0 min
